Reference: patent US8349851B2, “JAK kinase modulating compounds and methods of use thereof” (Ambit Biosciences Corp., priority 2009, dated 2013)
pIC50, pKd: −log10 of the molar value.

Columns and labels:
[1] = molecular target: T1, JAK3 (Homo sapiens, UniProt P52333); test: Competition binding assay, JAK3; details: read-out: Binding Assay: JAK3 (active_KD, ENZ)
T1 construct: made in house
Text: (§1) Competition Binding Assay to Determine Binding Constants (Kd) of the Compounds Against JAK Kinases
(§2) Competition binding assays used herein were developed, validated and performed as described in Fabian et al., Nature Biotechnology 2005, 23,329-336. Kinases were produced as fusions to T7 phage (See, Fabian et al. or WO04/015142) or alternatively, the kinases were expressed in HEK-293 cells and subsequently tagged with DNA for PCR detection (See, WO08/005310). For the binding assays, streptavidin-coated magnetic beads were treated with biotinylated affinity ligands for 30 min at rt to generate affinity resins. The liganded beads were blocked with excess biotin and washed with blocking buffer (SeaBlock (Pierce), 1% BSA, 0.05% Tween 20, 1 mM DTT) to remove unbound ligand and to reduce non-specific binding. […] Test compounds were prepared as 100× stocks in DMSO and rapidly diluted into the aqueous environment. DMSO was added to control assays lacking a test compound. Primary screen interactions were performed in polypropylene 384-well plates in a final volume of 34 μL, while Kd determinations were performed in polystyrene 96-well plates in a final volume of 135 μL. […] The kinase concentration in the eluates was measured by quantitative PCR. Each kinase was tested individually against each compound. Kds were determined using eleven serial threefold dilutions. A selectivity score, which is a quantitative measure of selectivity of a compound against a panel of enzymes, may be calculated for a compound by dividing the number of enzymes for which a compound meets a set criteria, (for example, a binding constant of 100 nM or less), by the total number of enzymes tested.

[2] = test system: csTF-1 cells (GM-CSFR/JAK2/STAT5 pathway); test: csTF-1 cell-based reporter assay; parameters: species or system human; details: Homo sapiens; GM-CSF at 2 ng/mL, 4 hours; read-out: Cell Assay: CS0017: CS TF-1 reporter assay: IC50
Experimental: csTF-1 Cell-based Reporter Assay
csTF-1 cells are derived from the human erythroleukemia cell line that is growth dependent on GM-CSF and has an intact GM-CSFR/JAK2/STAT5 pathway. The cell line contains stably integrated beta-lactamase reporter gene under the control of the […] (irf 1) response element recognized by the activated transcription factor STATS. csTF-1 cells (Invitrogen K1219) were washed with assay media (97% OPTIMEM/0.5% dialyzed FBS/0.1 mM NEAA/1 mM Na pyr/P/S) and seeded in the same media at 5×10^5 cell/mL in T150 flask. After 16 hour incubation, cells were seeded at 2×10^5 cell/well in 50 μl volume, into Costar, clear bottom, 96-well assay plates. Serial dilutions of compounds were added to the plates with final DMSO concentration at 0.5% and GM-CSF at 2 ng/mL and the plates were then incubated at […] and 5% CO2 for 4 hours. The plates were brought to room temperature before adding Substrate Mixture according to manufacturer's protocol (Invitrogen, Catalog #K1085). The assay plates containing the substrate mixture were incubated in the dark at room temperature for 2 hours. Blue and green fluorescence was measured with excitation at 409 nm and emission at 460 nm (for blue) and excitation at 409 nm and emission at 530 nm (for green) using Spectra Max Gemini EM.

[3] = molecular target: T2, JAK2 (Homo sapiens, UniProt O60674); test: Competition binding assay, JAK2; details: read-out: Binding Assay: JAK2 (active_KD)
T2 construct: made in house
Text: as §1, §2

T1 sequence (P52333 822-1111 limits assumed): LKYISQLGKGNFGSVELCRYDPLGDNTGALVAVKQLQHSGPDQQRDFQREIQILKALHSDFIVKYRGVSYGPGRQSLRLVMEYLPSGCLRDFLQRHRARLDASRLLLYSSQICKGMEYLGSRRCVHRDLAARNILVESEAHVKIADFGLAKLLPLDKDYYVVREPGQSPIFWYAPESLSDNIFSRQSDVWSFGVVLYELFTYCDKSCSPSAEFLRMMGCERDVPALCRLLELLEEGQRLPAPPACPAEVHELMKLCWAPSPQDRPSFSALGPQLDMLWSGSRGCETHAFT
T2 sequence (O60674 849-1124 limits assumed): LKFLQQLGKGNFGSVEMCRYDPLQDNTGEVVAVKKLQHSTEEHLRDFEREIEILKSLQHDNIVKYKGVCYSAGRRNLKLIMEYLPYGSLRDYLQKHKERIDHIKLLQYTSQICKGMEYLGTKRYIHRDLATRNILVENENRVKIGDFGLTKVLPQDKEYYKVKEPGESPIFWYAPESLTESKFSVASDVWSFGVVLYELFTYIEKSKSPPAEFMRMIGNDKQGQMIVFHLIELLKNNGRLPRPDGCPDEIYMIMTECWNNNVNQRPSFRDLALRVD

Compound | pKd [1] | pIC50 [2] | pKd [3]
Cc1cc(Nc2nc(C(O)c3ccc(F)cc3)nc3ccc(F)cc23)n[nH]1 (racemic) [Example 54, (R,S)-(6-fluoro-4-(5-methyl-1H-pyrazol-3-ylamino)quinazolin-2-yl)(4-fluorophenyl)methanol] | < 7.00 | 6.30 to 7.00 | 8.00 to 9.00
OC(c1ccc(F)cc1)c1nc(Nc2cc[nH]n2)c2cc(F)ccc2n1 (racemic) [Example 55, (R,S)-(4-(1H-pyrazol-3-ylamino)-6-fluoroquinazolin-2-yl)(4-fluorophenyl)methanol] | < 7.00 | < 6.30 | 8.00 to 9.00
OC(c1ccc(F)cc1)c1nc(Nc2cc[nH]n2)c2ccc(Br)cc2n1 (racemic) [Example 58, (R,S)-(4-(1H-pyrazol-3-ylamino)-7-bromoquinazolin-2-yl)(4-fluorophenyl)methanol] | < 7.00 | 6.30 to 7.00 | 8.00 to 9.00
Cc1cc(Nc2nc(C(O)c3ccc(F)cc3)nc3c(F)cccc23)n[nH]1 (racemic) [Example 61, (R,S)-(8-fluoro-4-(5-methyl-1H-pyrazol-3-ylamino)quinazolin-2-yl)(4-fluorophenyl)methanol] | 7.00 to 8.00 | 6.30 to 7.00 | ≥ 9.00
COc1ccccc1C(O)c1nc(Nc2cc(C)[nH]n2)c2ccccc2n1 (racemic) [Example 63, (R,S)-(2-methoxyphenyl)(4-(5-methyl-1H-pyrazol-3-ylamino)quinazolin-2-yl)methanol] | 7.00 to 8.00 | 6.30 to 7.00 | 8.00 to 9.00
Cc1cc(Nc2nc(C(O)c3ccc(F)c(F)c3)nc3ccccc23)n[nH]1 (racemic) [Example 66, (R,S)-(3,4-difluorophenyl)(4-(5-methyl-1H-pyrazol-3-ylamino)quinazolin-2-yl)methanol] | ≥ 8.00 | 6.30 to 7.00 | ≥ 9.00
[2H]C(O)(c1ccc(F)cc1)c1nc(Nc2cc(C)[nH]n2)c2ccccc2n1 (racemic) [Example 72, (R,S) (4-fluorophenyl)(4-(5-methyl-1H-pyrazol-3-ylamino)quinazolin-2-yl)methanol-1-d] | – | ≥ 7.00 | –
CCc1cc(Nc2nc(C(O)c3ccc(F)cc3)nc3ccccc23)n[nH]1 (racemic) [Example 74, (R,S)-(4-(5-ethyl-1H-pyrazol-3-ylamino)quinazolin-2-yl)(4-fluorophenyl)methanol] | – | – | ≥ 9.00
Cc1cc(Nc2nc(C(O)c3ccc(F)c(O)c3)nc3ccccc23)n[nH]1 (racemic) [Example 78, (R,S)-(2-fluoro-5-(hydroxy(4-(5-methyl-1H-pyrazol-3-ylamino)quinazolin-2-yl)methyl)phenol acetate] | – | – | ≥ 9.00
Fc1ccc(C(F)(F)c2nc(Nc3cc[nH]n3)c3ccc(F)cc3n2)cc1 [Example 21, 2-(difluoro(4-fluorophenyl)methyl)-7-fluoro-N-(1H-pyrazol-3-yl)quinazolin-4-amine] | 7.00 to 8.00 | 6.30 to 7.00 | 8.00 to 9.00
O=C(c1ccc(F)cc1)c1nc(Nc2cc[nH]n2)c2ccc(I)cc2n1 [Example 22, (4-(1H-pyrazol-3-ylamino)-7-iodoquinazolin-2-yl)(4-fluorophenyl)methanone] | < 7.00 | 6.30 to 7.00 | 8.00 to 9.00
Cc1ccc2c(Nc3cc[nH]n3)nc(C(F)(F)c3ccc(F)cc3)nc2c1 [Example 27, 2-(difluoro(4-fluorophenyl)methyl)-7-methyl-N-(1H-pyrazol-3-yl)quinazolin-4-amine] | 7.00 to 8.00 | ≥ 7.00 | ≥ 9.00
Cc1cc(Nc2nc(C(F)(F)c3ccc(F)cc3)nc3cc(CO)ccc23)n[nH]1 [Example 49, (2-(difluoro(4-fluorophenyl)methyl)-4-(5-methyl-1H-pyrazol-3-ylamino)quinazolin-7-yl)methanol] | ≥ 8.00 | ≥ 7.00 | ≥ 9.00
Cc1cc(Nc2nc(C(=O)c3ccc(F)cc3)nc3ccc(F)cc23)n[nH]1 [Example 53, (6-fluoro-4-(5-methyl-1H-pyrazol-3-ylamino)quinazolin-2-yl)(4-fluorophenyl)methanone] | < 7.00 | 6.30 to 7.00 | 8.00 to 9.00
Cc1cc(Nc2nc(C(=O)c3ccc(F)cc3)nc3cc(Br)ccc23)n[nH]1 [Example 56, (7-bromo-4-(5-methyl-1H-pyrazol-3-ylamino)quinazolin-2-yl)(4-fluorophenyl)methanone] | 7.00 to 8.00 | 6.30 to 7.00 | 8.00 to 9.00
Cc1cc(Nc2nc(C(O)c3ccc(F)cc3)nc3cc(Br)ccc23)n[nH]1 (stereo not shown) [Example 57, (7-bromo-4-(5-methyl-1H-pyrazol-3-ylamino)quinazolin-2-yl)(4-fluorophenyl)methanol] | – | 6.30 to 7.00 | 8.00 to 9.00
Cc1cc(Nc2nc(C3(c4ccc(F)cc4)OCCO3)nc3ccccc23)n[nH]1 [Example 59, 2-(2-(4-fluorophenyl)-1,3-dioxolan-2-yl)-N-(5-methyl-1H-pyrazol-3-yl)quinazolin-4-amine] | 7.00 to 8.00 | ≥ 7.00 | ≥ 9.00
Cc1cc(Nc2nc(C(=O)c3ccc(F)cc3)nc3c(F)cccc23)n[nH]1 [Example 60, (8-fluoro-4-(5-methyl-1H-pyrazol-3-ylamino)quinazolin-2-yl)(4-fluorophenyl)methanone] | < 7.00 | 6.30 to 7.00 | 8.00 to 9.00
COc1ccccc1C(=O)c1nc(Nc2cc(C)[nH]n2)c2ccccc2n1 [Example 62, (2-methoxyphenyl)(4-(5-methyl-1H-pyrazol-3-ylamino)quinazolin-2-yl)methanone] | < 7.00 | 6.30 to 7.00 | 8.00 to 9.00
Cc1cc(Nc2nc(C(O)c3cccc(F)c3)nc3ccccc23)n[nH]1 (stereo not shown) [Example 64, (3-fluorophenyl)(4-(5-methyl-1H-pyrazol-3-ylamino)quinazolin-2-yl)methanol] | 7.00 to 8.00 | 6.30 to 7.00 | 8.00 to 9.00
Cc1cc(Nc2nc(C(NC=O)c3ccc(F)cc3)nc3ccccc23)n[nH]1 (stereo not shown) [Example 65, N-((4-fluorophenyl)(4-(5-methyl-1H-pyrazol-3-ylamino)quinazolin-2-yl)methyl)formamide] | 7.00 to 8.00 | 6.30 to 7.00 | ≥ 9.00
Cc1cc(Nc2nc(C(O)c3ccc(F)c(Cl)c3)nc3ccccc23)n[nH]1 (stereo not shown) [Example 67, (3-chloro-4-fluorophenyl)(4-(5-methyl-1H-pyrazol-3-ylamino)quinazolin-2-yl)methanol] | ≥ 8.00 | 6.30 to 7.00 | ≥ 9.00
Cc1cc(Nc2nc(C(CC#N)c3ccc(F)cc3)nc3ccccc23)n[nH]1 (stereo not shown) [Example 68, 3-(4-fluorophenyl)-3-(4-(5-methyl-1H-pyrazol-3-ylamino)quinazolin-2-yl)propanenitrile] | 7.00 to 8.00 | ≥ 7.00 | 8.00 to 9.00
COc1cc(C(=O)c2nc(Nc3cc(C)[nH]n3)c3ccccc3n2)ccc1F [Example 76, (4-fluoro-3-methoxyphenyl)(4-(5-methyl-1H-pyrazol-3-ylamino)quinazolin-2-yl)methanone] | – | – | < 8.00
Cc1cc(Nc2nc(C(=O)c3ccc(F)c(O)c3)nc3ccccc23)n[nH]1 [Example 77, (4-fluoro-3-hydroxyphenyl)(4-(5-methyl-1H-pyrazol-3-ylamino)quinazolin-2-yl)methanone] | – | – | < 8.00
